Measured values as given in the METLIN SMRT retention time set (Domingo-Almenara et al. 2019).

Experiment: gradient 5% acetonitrile 3 min, to 50% in 2 min, to 85% in 15 min, held 3 min, 100 µL/min
Details: column: Zorbax Extend-C18 2.1 x 50 mm; eluents: water / acetonitrile, 0.1% formic acid
Method in brief: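 Retention times come from adduct peaks that were picked computationally and then checked by hand. The standards, pure and pooled in mixtures of ~100 molecules, were run on a Zorbax Extend-C18 column (2.1 × 50 mm, 1.8 μm) at 100 μL/min with water and acetonitrile, each with 0.1% formic acid. Detection was by quadrupole time-of-flight mass spectrometry in positive and negative ionization mode, with a dead volume of 40 μL and a dwell volume of 900 μL.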

| SMILES | RP-LC retention time [s] |
| --- | --- |
| O=S(=O)(c1cccc2cccnc12)N1CC[C@@H]2COCCN(Cc3ccccc3)[C@@H]2C1 | 664 |
| CC(=O)N1CCC(C(=O)NC2CCCN(c3cc(-c4ccc(Cl)cc4)[nH]n3)C2)CC1 (centres undefined) | 655 |
| COC1CCN(CC2CCCCCN2C(=O)c2ccoc2)CC1 (centres undefined) | 596 |
| COc1ccc(Cl)cc1NC(=O)N1CCC(C(=O)Nc2nccs2)CC1 | 764 |
| Cc1ccc(C2=NC3(CCN(C(=O)c4cccs4)CC3)ON2)cc1 | 810 |
| Cc1ccc2nc(-c3ccc(N4CCOCC4)cc3)c(Nc3ccc4c(c3)OCCO4)n2c1 | 692 |
| CC(Oc1ccc(F)cc1)C(=O)Nc1ccc(-c2nc(-c3ccc(F)cc3)no2)cc1 (centres undefined) | 1290 |
| COC(=O)c1ccc(NC(=O)CSc2nnc(CN3CCOCC3)o2)cc1 | 576 |
| CCn1cc(C)c(C(=O)O)c1CC(=O)NCCCN1CCN(C)CC1 | 562 |
| COc1cccc2c(C)nc(NC3=NCN(CC4CCCO4)CN3)nc12 (centres undefined) | 627 |
| Cc1c(Cl)cccc1Nc1c(-c2ccc(N3CCOCC3)cc2)nc2cnccn12 | 916 |
| CCn1cc(CN2CCC(C(=O)NCC3CCCCC3)CC2)c2cc(OC)ccc21 | 736 |
| N#Cc1ccc(-c2nc(-c3ccc4c(c3)nnn4CCN3CCCCC3)no2)cc1 | 676 |
| O=S(=O)(c1cccn2c(SCc3ccncc3)nnc12)N1CCN(c2ccc(F)cc2)CC1 | 663 |
| COc1ccc(NC(=O)Cn2nc3nc(N4CCCC(C)C4)ccn3c2=O)cc1Cl (centres undefined) | 717 |
| COc1ccccc1N1CCN(c2ncc(C(F)(F)F)cc2Cl)CC1 | 1210 |
| CCn1c(N2CCCC(C(=O)NCCCOC)C2)cc(=O)n(C)c1=O (centres undefined) | 665 |
| O=C(c1cc(-c2cccnc2)n[nH]1)N1CCN(C(=O)C2CCCC2)CC1 | 594 |
| O=C(Nc1nnc2n1CCS2)c1ccc2c(c1)OCO2 | 590 |
| Cc1cccc(Cn2c(=O)n(CCNC(=O)c3cccn3C)c3ncccc32)c1 | 826 |
| O=C(Cc1cccc(C(F)(F)F)c1)Nc1cnn(-c2ncc(N3CCCC3)cn2)c1 | 907 |
| CC(C)CNC(=O)C1CC(=O)N(CCc2c[nH]c3ccc(Cl)cc23)C1 (centres undefined) | 781 |
| COc1ccc(-c2noc(Cc3nc(-c4ccc(Br)cc4)cs3)n2)cc1 | 1280 |

| SMILES | RP-LC retention time [s] |
| --- | --- |
| COC(=O)c1ccccc1NC(=O)Cc1csc(Nc2ccccn2)n1 | 703 |
| Cc1cc(Cl)ccc1NC(=O)N1C[C@@H](F)C[C@H]1C(=O)N1CCc2ccccc2C1 | 908 |
| COc1cccc(CNC(=O)CN2C(=O)CSc3cccn3-c3ccccc32)c1 | 846 |
| CSc1cccc(NC(=O)c2c[nH]c3ncccc23)c1 | 752 |
| O=C(Cn1cnc2c(-c3ccc(F)cc3)csc2c1=O)N1CCCc2ccccc21 | 1020 |
| CCNC(=O)c1nc(N(C)C)c2c(C)scc2n1 | 593 |
| Cc1nnc(-c2ccc(Cl)cc2)nc1N1CCC(C)CC1 | 897 |
| CCOC(=O)N1CCN(c2cc(C(=O)O)c3cc(NC(=O)COc4ccccc4)ccc3n2)CC1 | 629 |
| CCOC(=O)c1csc(NC(=O)c2csc3nc(-c4ccc(F)cc4)cn23)n1 | 913 |
| Cc1nc(C)c(C(=O)Nc2nc(-c3ccc(Cl)cc3)cs2)s1 | 992 |
| Cc1ccc(N2CCC(NC(=O)c3cccc(C#N)c3)C2=O)cc1 (centres undefined) | 813 |
| Cc1cc2nc(C)c(=O)n(CCC(=O)NCCc3c[nH]c4ccc(Cl)cc34)c2cc1C | 902 |
| Cc1ccc2nc(C(=O)N3CCN(c4ccccc4Cl)CC3)cn2c1 | 748 |
| CCOc1ccc(NC(=O)C2CCN(S(=O)(=O)c3cc(-c4noc(C)n4)cs3)CC2)cc1 | 917 |
| O=C(NCc1c[nH]c2ncccc12)C1CCC1 | 558 |
| Cn1cc(-c2cc3n(n2)CCC(=O)N3CCCC(=O)Nc2ccccc2F)c2ccccc21 | 844 |
| CCOC(=O)CC1(NC(=O)N2CCN(c3nc4ccccc4n3C)CC2)CCCCC1 | 593 |
| CN(CCNC(=O)c1ccc2c(c1)NC(=O)C1CCCCN21)Cc1ccccc1 (centres undefined) | 630 |
| O=C(Nc1ccc(N2CCCCCC2)c(C(=O)O)c1)c1cccs1 | 657 |
| CCOc1ccc(NS(=O)(=O)c2cc3c(s2)CCN(C(=O)C2CCC2)C3)cc1 | 896 |
| CCN1CCN(C(=O)c2cc3n(n2)CC(C)(C(=O)NC2CCCCCC2)N(C)C3=O)CC1 (centres undefined) | 611 |
| Cc1cccc(NC(=O)N2CCCC2c2nc(-c3ccc(F)cc3F)no2)c1C (centres undefined) | 981 |
| Cc1nnc(N2CCCC(C(=O)NCCC3=CCCCC3)C2)c2nn(-c3ccc(Cl)cc3)c(C)c12 (centres undefined) | 861 |

| SMILES | RP-LC retention time [s] |
| --- | --- |
| COc1cc(NC(=O)CSc2nnnn2C)c2ncccc2c1 | 724 |
| O=S(=O)(c1cc(-c2nnc(C3CC3)o2)co1)N1CCN(c2cccc(Cl)c2)CC1 | 1060 |
| N#Cc1ccc(S(=O)(=O)N2CCC(c3cc(N)on3)CC2)cc1 | 737 |
| O=C(C1Cc2ccccc2CN1S(=O)(=O)c1cccs1)N1CCCCCC1 (centres undefined) | 932 |
| COc1cc2c(cc1OC)CC(=O)N(CCCN(C)C[C@H]1Cc3cc(OC)c(OC)cc31)CC2 | 677 |
| CCc1nccn1Cc1nc(-c2ccc(OC)c(OC)c2)no1 | 618 |
| CCCN1CCN(C(=O)C2Cc3cc(S(=O)(=O)N4CCCCC4)ccc3N2C(C)=O)CC1 (centres undefined) | 630 |
| COc1ccc(-c2cn3c(CC(=O)NC4CCCC4)csc3n2)cc1OC | 660 |
| CCOc1ccc(C(=O)N2CCC3(CC2)C(=O)N(CC)c2ccccc23)cc1OCC | 939 |
| COc1cc(NC(=O)COc2cc(C)nc(N3CCN(c4ccccc4)CC3)n2)cc(OC)c1OC | 764 |
| CCOc1ccc(NC(=O)CCC2CCN(c3cc(NC4CC4)ncn3)CC2)cc1 | 710 |
| Cc1ccc(NC(=O)CC2COc3ccccc3NC2=O)cc1C (centres undefined) | 687 |
| COc1ccc(NC(=O)C2CCN(S(=O)(=O)c3cc(-c4noc(C)n4)cs3)CC2)cc1OC | 814 |
| CC(C)Cn1cc(S(=O)(=O)Nc2ccc(Cl)cc2F)c2cccnc21 | 1010 |
| Cc1cccc(C)c1NC(=O)C(C)n1cnc2nc3c(cc2c1=O)CCCC3 (centres undefined) | 756 |
| Cc1ccc(NC(=O)c2cn(-c3cc(-c4nc(C5CC5)no4)ccn3)cn2)c(C)c1 | 1090 |
| CN(C)c1ccc(-c2nc(-c3cn(Cc4ccc(F)cc4)nn3)no2)cc1 | 1010 |
| Brc1ccc(-c2ccc(CNCc3ccccn3)o2)cc1 | 703 |
| COc1cccc(N2CCN(c3cc(SCC(=O)NCc4ccccc4)ncn3)CC2)c1 | 891 |
| CN1C(=O)c2cc(C(=O)N3CCN(c4ccccc4F)CC3)nn2CC1(C)C(=O)NC1CCCCC1 (centres undefined) | 834 |
| COc1ccc(NC(=O)N2CCN(c3cnn4c(C)nnc4c3)CC2)c(OC)c1 | 577 |
| CCN(C(=O)c1cccs1)c1nc(-c2ccccc2)cs1 | 1220 |
| Cc1nc2cccnc2n1C1CCN(C(=O)c2cccc(Cl)c2)C1 (centres undefined) | 602 |

| SMILES | RP-LC retention time [s] |
| --- | --- |
| Cc1ccc(N2CCN(C(=O)C3CCCN(c4nccc5sc(C)cc45)C3)CC2)cc1 (centres undefined) | 747 |
| CC(=O)c1ccc(NC(=O)CCc2c(C)nn(-c3cc(N(C)C)ncn3)c2C)cc1 | 749 |
| CCC1(C(=O)NCc2ccc(Cl)cc2)CCCCC(=O)N1 (centres undefined) | 738 |
| COc1cc(C2NCCc3c2[nH]c2ccccc32)ccc1OC(C)C (centres undefined) | 676 |
| N#CC1=C(SCC(=O)Nc2nccs2)NC2=C(C(=O)CCC2)C1c1ccco1 (centres undefined) | 674 |
| COc1ccc2c(c1)C1(CCN(S(=O)(=O)c3cc(F)ccc3C)C1)C(=O)N2C (centres undefined) | 997 |
| CC1CCCN(c2ncc(C(=O)NCc3ccccc3)c(N)n2)C1 (centres undefined) | 597 |
| Cn1cnc2c(C(=O)NC3CCCCCC3)nn(-c3ccc(Cl)cc3)c2c1=O | 929 |
| COC(=O)c1cc(C)nc2c1c(=O)n(Cc1nc(-c3ccc(OC)c(OC)c3)oc1C)c(=O)n2C | 964 |
| CCC(=O)N1CCc2sc(C(=O)NCc3ccc(CC)cc3)cc2C1 | 824 |
| O=C(CSc1ccc(-c2ccc3c(c2)OCO3)nn1)Nc1ccc2c(c1)OCCO2 | 782 |
| Cc1noc(-c2nc(-c3ccc(N(C)C)cc3)no2)n1 | 1030 |
| COCCN1C(=O)Cc2ccccc2C1C(=O)NCc1ccccc1Br (centres undefined) | 775 |
| CCOc1ccc(CC(=O)N2CCCC2c2nc(-c3cccc(C)c3)no2)cc1 (centres undefined) | 1120 |
| CCN1C(=O)COc2ccc(-c3csc(NC(=O)c4ccccc4Cl)n3)cc21 | 968 |
| CCc1ccc(S(=O)(=O)N2CCC(n3cnnc3CC)CC2)cc1 | 746 |
| CCOCCCNC(=O)C1CCCN(c2nc3ccccc3n(Cc3ccc(C)cc3)c2=O)C1 (centres undefined) | 1080 |
| COc1cc(OC)cc(N2C=C(C#N)S(=O)(=O)c3ccc(C)cc32)c1 | 948 |
| O=C(N[C@@H]1CN(c2ncccn2)C[C@H]1CO)c1ccoc1 | 567 |
| COc1cccc(NC(=O)Nc2ccc(CC(N)=O)cc2)c1OC | 636 |
